These results are taken from PubChem BioAssay (NCI).

Test systems include HT29 colon; MCF7 breast; BT-549 breast; LOX IMVI melanoma; HOP-62 NSCLC; DU-145 prostate; RPMI-8226 leukemia; MDA-MB-231 breast; SK-MEL-2 melanoma; OVCAR-4 ovarian.
Experiment in all cases: NCI anticancer screen, dose series, 48 h

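Following 48 hours of exposure in 96-well plates, responses at five concentrations were used to interpolate endpoints linearly. GI50 is the concentration that inhibits growth by half. TGI marks complete inhibition of growth.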

Consider `COc1cccc(Sc2ccc([N+](=O)[O-])c3no[n+]([O-])c23)c1`, for which the GI50 is 9.8 µM in the experiment with HT29 colon; 4.87 µM in the experiment on MCF7 breast; 8.06 µM with BT-549 breast; 3.38 µM in the experiment on LOX IMVI melanoma; 25.2 µM in the experiment with HOP-62 NSCLC; 11.3 µM with DU-145 prostate. Also, the GI50 in the experiment on RPMI-8226 leukemia is 3.67 µM; in the experiment on MDA-MB-231 breast, 11.2 µM; in the experiment on SK-MEL-2 melanoma, 20.9 µM; in the experiment on OVCAR-4 ovarian, 10.1 µM. In addition, the TGI is more than 55.6 µM in the experiment on HT29 colon; 20.6 µM in the experiment with MCF7 breast; 22.1 µM in the experiment with BT-549 breast; 11.5 µM in the experiment with LOX IMVI melanoma; 50 µM with HOP-62 NSCLC; 24.4 µM in the experiment on DU-145 prostate. Besides, the TGI is 21 µM in the experiment with RPMI-8226 leukemia, 28 µM in the experiment with MDA-MB-231 breast, 45.2 µM in the experiment with SK-MEL-2 melanoma and 27 µM in the experiment with OVCAR-4 ovarian.

As to `CCN1C(=O)N(CC)C2C1NN=c1s/c(=C\c3cccs3)c(=O)n12` (stereo not given), the GI50 with HT29 colon is 0.0557 µM; with MCF7 breast it was 0.0496 µM; in the experiment on BT-549 breast, 0.443 µM; in the experiment on LOX IMVI melanoma it was 0.139 µM; in the experiment with HOP-62 NSCLC, 0.302 µM; in the experiment with DU-145 prostate it was 0.281 µM. The GI50 in the experiment on RPMI-8226 leukemia was 0.412 µM; in the experiment with MDA-MB-231 breast it was 0.468 µM; in the experiment with SK-MEL-2 melanoma, 1.41 µM; in the experiment with OVCAR-4 ovarian it was 1.82 µM. In addition, the TGI is more than 100 µM with HT29 colon; more than 100 µM in the experiment on MCF7 breast; more than 100 µM with BT-549 breast; more than 100 µM in the experiment on LOX IMVI melanoma; more than 100 µM with HOP-62 NSCLC; more than 29.9 µM with DU-145 prostate. The TGI with RPMI-8226 leukemia, in the experiment with MDA-MB-231 breast, in the experiment with SK-MEL-2 melanoma and in the experiment on OVCAR-4 ovarian was more than 100 µM throughout.

With `CN(C)C[C@H]1CCn2c(c(C3=C(c4cn(C)c5ccccc45)C(=O)NC3=O)c3ccccc32)C1`, the GI50 is 3.45 µM in the experiment on HT29 colon; 4.25 µM in the experiment with MCF7 breast; 4.83 µM with BT-549 breast; 4.58 µM with LOX IMVI melanoma; 4.57 µM in the experiment on HOP-62 NSCLC; 5.46 µM in the experiment with DU-145 prostate. Moreover, the GI50 in the experiment on RPMI-8226 leukemia was 4.88 µM; in the experiment with MDA-MB-231 breast, 3.96 µM; with SK-MEL-2 melanoma, 4.97 µM; in the experiment with OVCAR-4 ovarian it was 3.97 µM. In addition, the TGI is 11.5 µM in the experiment on HT29 colon; 9.36 µM in the experiment on MCF7 breast; 9.53 µM in the experiment on BT-549 breast; 8.56 µM in the experiment with LOX IMVI melanoma; 8.58 µM in the experiment with HOP-62 NSCLC; 10.8 µM in the experiment with DU-145 prostate. For the same compound, the TGI in the experiment with RPMI-8226 leukemia worked out at 10.5 µM; with MDA-MB-231 breast it was 10.3 µM; with SK-MEL-2 melanoma, 9.23 µM; with OVCAR-4 ovarian, 12.5 µM.

For the compound `CC/C=C\C[C@H](O)C/C=C1/C(=O)C=C[C@@H]1C/C=C\CCCC(=O)OC(C)C`, the GI50 in the experiment on HT29 colon is 1.65 µM; in the experiment on MCF7 breast it was 0.372 µM; in the experiment with BT-549 breast, 1.25 µM; in the experiment with LOX IMVI melanoma, 0.18 µM; in the experiment on HOP-62 NSCLC it was 2.45 µM; with DU-145 prostate it was 3.05 µM. Besides, the GI50 with RPMI-8226 leukemia is 0.371 µM; in the experiment with MDA-MB-231 breast it was 3.17 µM; in the experiment on SK-MEL-2 melanoma, 2.02 µM; with OVCAR-4 ovarian, 2.92 µM. The TGI in the experiment on HT29 colon is 3.21 µM; with MCF7 breast, 2.22 µM; in the experiment with BT-549 breast it was 3.51 µM; in the experiment on LOX IMVI melanoma, 0.41 µM; in the experiment with HOP-62 NSCLC, 6.01 µM; with DU-145 prostate, 11.9 µM. Besides, the TGI with RPMI-8226 leukemia came out at 0.939 µM; in the experiment with MDA-MB-231 breast, 9.77 µM; with SK-MEL-2 melanoma, 4.77 µM; in the experiment with OVCAR-4 ovarian, 14.4 µM.

Consider `C=C1C(=O)O[C@H]2[C@H]1CC/C(COC(=O)c1cn(C)c3ccccc13)=C\CC[C@@]1(C)O[C@@H]21`, for which the GI50 in the experiment with HT29 colon was 0.526 µM; with MCF7 breast it was 0.4 µM; in the experiment on BT-549 breast, 0.514 µM; in the experiment on LOX IMVI melanoma, 0.228 µM; in the experiment with HOP-62 NSCLC, 1.81 µM; in the experiment with DU-145 prostate, 1.01 µM. For the same compound, the GI50 is 0.217 µM in the experiment with RPMI-8226 leukemia, 1.05 µM with MDA-MB-231 breast, 1.38 µM in the experiment with SK-MEL-2 melanoma and 1.14 µM in the experiment with OVCAR-4 ovarian. The TGI stood at 1.78 µM in the experiment with HT29 colon; 1.98 µM in the experiment on MCF7 breast; 1.99 µM in the experiment with BT-549 breast; 0.81 µM in the experiment with LOX IMVI melanoma; 3.76 µM with HOP-62 NSCLC; 2.2 µM with DU-145 prostate. Further, the TGI in the experiment on RPMI-8226 leukemia stood at 0.665 µM; with MDA-MB-231 breast, 2.47 µM; in the experiment on SK-MEL-2 melanoma it was 2.82 µM; in the experiment with OVCAR-4 ovarian, 3.04 µM.

Turning to `COc1ccc(-c2nsc3c2NC(=O)CC3c2ccc3c(c2)OCCO3)cc1` (stereo not given), the GI50 in the experiment with HT29 colon is 0.419 µM; in the experiment on MCF7 breast it was 0.371 µM; with BT-549 breast it was 0.674 µM; with LOX IMVI melanoma, 0.601 µM; in the experiment with HOP-62 NSCLC, 0.585 µM; in the experiment with DU-145 prostate it was 1.07 µM. Besides, the GI50 in the experiment on RPMI-8226 leukemia is 0.492 µM; with MDA-MB-231 breast, 1.59 µM; in the experiment on SK-MEL-2 melanoma it was 7.24 µM; with OVCAR-4 ovarian, 2.86 µM. For the same compound, the TGI with HT29 colon was more than 55.5 µM; with MCF7 breast it was more than 100 µM; with BT-549 breast it was more than 100 µM; in the experiment with LOX IMVI melanoma, more than 100 µM; in the experiment on HOP-62 NSCLC, more than 100 µM; in the experiment on DU-145 prostate it was more than 21.6 µM. Besides, the TGI in the experiment with RPMI-8226 leukemia was 42.4 µM; in the experiment on MDA-MB-231 breast it was more than 100 µM; in the experiment on SK-MEL-2 melanoma it was more than 100 µM; in the experiment on OVCAR-4 ovarian it was more than 100 µM.

As to `CCNc1cc2oc(=O)cc(C(F)(F)F)c2cc1C`, the TGI in the experiment on HT29 colon, with MCF7 breast, with BT-549 breast, in the experiment with LOX IMVI melanoma, with HOP-62 NSCLC and in the experiment on DU-145 prostate was more than 100 µM throughout. The TGI with RPMI-8226 leukemia, in the experiment with MDA-MB-231 breast, with SK-MEL-2 melanoma and in the experiment on OVCAR-4 ovarian was more than 100 µM in each case.

As for `O=C1NCN(c2ccccc2)C12CCN(CCCC(c1ccc(F)cc1)c1ccc(F)cc1)CC2`, the GI50 in the experiment with HT29 colon is 1.51 µM; in the experiment with MCF7 breast it was 1.88 µM; with BT-549 breast it was 2.53 µM; in the experiment on LOX IMVI melanoma, 1.8 µM; with HOP-62 NSCLC, 1.84 µM; in the experiment on DU-145 prostate, 3.25 µM. Further, the GI50 was 1.82 µM in the experiment on RPMI-8226 leukemia, 1.89 µM in the experiment on MDA-MB-231 breast, 1.56 µM in the experiment with SK-MEL-2 melanoma and 2.13 µM in the experiment on OVCAR-4 ovarian. For the same compound, the TGI was 3.22 µM in the experiment on HT29 colon; 5.65 µM in the experiment on MCF7 breast; 7.94 µM in the experiment on BT-549 breast; 3.32 µM in the experiment with LOX IMVI melanoma; 3.52 µM in the experiment on HOP-62 NSCLC; 11.2 µM in the experiment on DU-145 prostate. Further, the TGI with RPMI-8226 leukemia was found to be 4.1 µM; with MDA-MB-231 breast, 3.88 µM; with SK-MEL-2 melanoma, 2.98 µM; with OVCAR-4 ovarian, 9.98 µM.
